{"source": "patent US20240024409A1", "about": "“N-f-MLF DERIVATIVES THAT INHIBIT FORMYL PEPTIDE RECEPTORS FOR THE TREATMENT OF DISEASE” (University of South Alabama, priority 2022, published 2024)", "key": {"[1]": {"system": "Primary STAT3^mut bone marrow-derived mast cells (BMMC)", "test": "BMMC degranulation (LAMP-1 on the plasma membrane by flow cytometry)", "format": "cell-based, mice", "conditions": "DNP-specific IgE then DNP; peptide added prior to DNP; varying concentrations", "method": "Primary bone marrow-derived mast cells (BMMC) were cultured from STAT3^mut mice in RPMI-1640 Medium (Thermo Fisher Scientific) containing 10% fetal bovine serum (FBS), interleukin-3 (IL-3) and stem cell factor (SCF). To induce degranulation, BMMC were incubated with dinitrophenyl (DNP)-specific IgE followed by addition of DNP to crosslink IgE. To test effects of fMLFF and fMLYF, different concentrations were administered prior to the addition of DNP. Degranulation was measured by the amount of lysosomal-associated membrane protein 1 (LAMP-1) on the plasma membrane by flow cytometry.\nPrimary STAT3^mut BMMC were treated with varying concentrations of fMLFF and fMLYF (FIG. 3A and FIG. 3B). Data shown in FIG. 3B were summarized from 3 individual experiments; bars indicate means+SEM; **p<0.001; ****p<0.00001, 2-way ANOVA with Tukey's multiple comparison. Assays were performed independently with fMLFF and fMLYF; data shown are cumulative for experiments using fMLFF and fMLYF individually."}, "circulating IgE levels": {"system": "circulating IgE levels", "test": "IgE production in vivo (serum IgE by ELISA)", "design": "species or system STAT3^mut mice", "conditions": "2.5 mg/kg once per week for 3 weeks", "method": "Groups (n=4-6/group) were treated with fMLYF (2.5 mg/kg) or vehicle once per week for 3 weeks. Serum was collected to measure effects of peptide treatment on circulating IgE levels via ELISA (FIG. 1 and FIG. 5)."}}}
{"substance": "fMLFF", "values": [{"measurement": "mast cell degranulation in vitro", "setting": "[1]", "value": "attenuated"}, {"measurement": "IgE production in vivo", "setting": "circulating IgE levels", "value": "attenuated"}]}
